Reference: patent US20230052740A1, “MODULATORS OF CIRCADIAN RHYTHMS AND USES THEREOF” (The Regents of the University of California, priority 2019, published 2023)
Read-outs that look alike come from different tables or passages of the source.

Key:
C3H/HeN mice = test: Phase shift of circadian running wheel activity onset in constant dark; type: in vivo, mouse; conditions: for advance of the onset of activity: 0.9 μg/mouse (~30 μg/Kg) s.c., CT10 (dusk), 3 days; for advance of the onset of running wheel activity: 30 μg/mouse (1 mg/Kg) s.c., CT10, WT; for EC50 of in vivo activity (circadian phase shift): mouse
Source text: Male and female C3H/HeN (C3H) wild-type (WT), MT1 knockout (MT1KO), and MT2 knockout (MT2KO) mice (average 6.28 months) used in this study were raised in our breeding colony at University at Buffalo. […] Genotype was confirmed using tail samples at the end of each experiment and was verified periodically during the tenure of the colony. The strains of mice in our breeding colony were re-derived periodically by backcrossing with WT mice to reduce genetic drift.
Mice were group housed (3-5 per cage) with corncob bedding in polycarbonate translucent cages (30×19 cm) and maintained in a 14/10 light-dark (LD) cycle (Zeitgeber time 0 or ZT0 corresponds to Lights ON and ZT 14 to Lights OFF) in temperature and humidity controlled rooms with ad libitum access to food and water in the Laboratory Animal Facility at the University at Buffalo. Light levels were 200-300 lux at the level of the cage. Treatments and animal care performed in the dark were under a dim red safelight (15 watts, Kodak 1A filter) with illuminance of less than 3-5 lux (Benloucif, S. & Dubocovich, M. L. J Biol Rhythms 11, 113-125, (1996). All experimental procedures using mice were conducted in accordance with guidelines set forth by the National Institutes of Health and approved by the University at Buffalo Institutional Animal Care and Use Committee.
Circadian rhythm phase was determined for each mouse using the onset of running wheel activity defined as CT12 (Circadian Time 12). Running wheel activity was measured continuously via magnetic microswitches detecting wheel revolutions with a computer equipped with Clocklab data collection Software™ (Actimetrics: Wilmette, Ill.). All actigraphy data was visualized and analyzed using ClockLab™ and MATLAB™ software. All mice were individually housed in cages (33×15 cm) equipped with running wheels in light-tight ventilated cabinets with controlled temperature and LD cycles (Phenome Technologies: Skokie, Ill.). Male and female mice were housed in separate cabinets for all experiments.
Following a period of 14 days in a LD cycle mice were placed in constant dark (DD) beginning at ZT12 (dark onset). Mice were keptin DD (2-3 weeks) untilastable free-running phase of running wheel activity rhythm onset was established. Circadian times of treatment were predicated from best fit lines of running wheel activity onsets for of running either pre (7-14 days) and post (7-14 days) treatment. Treatment times were at CT10 (CT9-11) and CT2 (CT1-3) within a 3 hour window. […] Vehicle or drug treatments were repeated for 3 consecutive days at the selected circadian time following the three-pulse treatment protocol described (Benloucif, supra). Phase shifts were quantified using the best-fit lines for onsets of activity during pre and post treatment periods. Differences are characterized as phase delays (pre-treatment ahead of post treatment best fit line onset) or phase advances (post treatment ahead of pre treatment best fit line onset) of running wheel activity onset rhythms.
All statistical analyses as described in further detail for each experiment were conducted using GraphPad Prism 8™ (La Jolla, Calif.). All data sets were visualized for normality using QQ plots of predicted vs. actual residuals. Actigraphy data was generated for visualization blind to treatment prior to the quantification and statistical analysis stages. […] Data in FIGS. 4F & 4G were compared via a two-way ANOVA (3×2: genotype x treatment) with Tukey's post hoc analyses (P<0.05). Comparisons for FIG. 4L, FIGS. 11H-11J were made by mixed effect two-way repeated measures ANOVA (treatment×time) with Sidak's post hoc test (P<0.05). Number of days to re-entrainment was compared via one-way ANOVA or two-way ANOVA for FIG. 4M & FIG. 4N with a Dunnet's & Tukey's post hoc test (P<0.05) respectively. P values and values for statistical analyses are included in figure legends. […]

hMT1 = hMT1 (Homo sapiens, UniProt P48039); test: cAMP assay (GloSensor), isoproterenol-stimulated cAMP in HEK cells; type: cell-based; design: expressed in transfected cells; host or cells: HEK-T (HEK-293 T) cells, co-transfected with GloSensor DNA; conditions: for hMT1 pEC50: FIG. 3D-3F, transiently expressed receptor, isoproterenol-stimulated cAMP production; for inverse agonist efficacy: at MT1; for selectivity for MT1 over MT2: cAMP, inverse agonists
Chain of hMT1 (P48039 whole entry): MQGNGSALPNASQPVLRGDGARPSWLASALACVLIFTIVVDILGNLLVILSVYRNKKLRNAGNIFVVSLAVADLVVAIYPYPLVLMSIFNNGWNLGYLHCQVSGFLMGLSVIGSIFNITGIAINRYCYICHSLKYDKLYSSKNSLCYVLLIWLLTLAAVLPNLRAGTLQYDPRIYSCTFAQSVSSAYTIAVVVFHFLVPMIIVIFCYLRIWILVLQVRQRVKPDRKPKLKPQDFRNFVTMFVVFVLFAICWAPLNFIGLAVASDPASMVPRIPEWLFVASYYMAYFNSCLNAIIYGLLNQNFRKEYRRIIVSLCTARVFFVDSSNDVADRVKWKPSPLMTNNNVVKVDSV
Description: HEK-293 T cells were maintained with complete Dulbecco's modified Eagle's medium (DMEM), which is composed of 10% fetal bovine serum (FBS), 2 mM L-glutamine, 100 units/ml penicillin G, 100 μg/ml streptomycin at 37° C. in the presence of 5% CO2
MT1 and MT2 receptors were tested using Promega's spilt luciferase based GboSensor cAMP biosensor technology. HEK-T cells were plated in 15 cm cell culture dish (at a density of 18 million cells) containing DMEM composed of 10% dialyzed FBS, 2 mM L-glutamine, 100 units/ml penicillin G, 100 μg/ml streptomycin for 4-6 hour. Then, cells were co-transfected with 8 μg of construct which encodes either MT1 or MT2 (de-Tangonized constructs) and […] of Glosensor DNA. Next day, transfected cells were seeded into poly-L-lysinecoated 384-well white clear bottom cell culture plates with complete DMEM with 1% dialized FBS at a density of 20,000 cells per well for another 24 h. The next day, cell medium were discarded and loaded with 20 μl of assay buffer (1×HBSS, 20 mM HEPES, pH 7.4, 0.1% BSA). To measure agonist activity of MT1 or MT2 receptor, 10 μl of test compound solution at 3× final concentration was added for 15 minutes followed by addition of 10 μl of luciferin/isoproterenol mixture (at a final concentration of 4 mM and 200 nM respectively) for another 15 mins for luminescence quantification. Then, plates were counted using SpectraMax luminescence reader (Molecular Device). Data were analyzed using GraphPad Prism 6.0.

[1] = Mouse pharmacokinetic (PK) studies; type: in vivo; conditions: for Brain/Plasma Ratio: 30′; for T1/2: plasma
[2] = Schild analysis, competitive antagonism of melatonin
[3] = inverse agonist, increase of basal cAMP, read-out: EC50 at MT1

| Structure (SMILES) | hMT1 pEC50 (hMT1) | AUC [1] | CL [1] | Cmax [1] | Vss [1] | Brain/Plasma Ratio [1] | T1/2 [1] | advance of the onset of activity (C3H/HeN mice; WT) | advance of the onset of running wheel activity (C3H/HeN mice; in words) | EC50 of in vivo activity (circadian phase shift) (C3H/HeN mice) | hMT1 Schild slope (hMT1; [2]) | inverse agonist efficacy (hMT1) | selectivity for MT1 over MT2 (hMT1) | EC50 (hMT1; [3]) | other results |
| --- | --- | --- | --- | --- | --- | --- | --- | --- | --- | --- | --- | --- | --- | --- | --- |
| COc1ccc(Br)c(CNc2cccnc2)c1 [ZINC128734226] | 6.83±0.17 | 282.1 ng·h/mL | 117.9 mL/min/kg | 1922.8 ng/mL | 1.11 L/kg | 1.58 (30′) | 17.4 min | – | – | – | – | – | – | – | effect on circadian phase (C3H/HeN mice; 0.9 or 30 μg/Kg doses, CT10, in words): did not significantly affect circadian phase; Emax (hMT1; HEK293, FIG. 3F, normalized to maximal melatonin effect, read-out: hMT1 Emax): 79 ± 3%; Emax (hMT1; HEK293, Table 2, agonist, normalized to melatonin response, read-out: MT1 % Emax (converted)): 79%; Emax (hMT1; HEK293, Table 4, agonist, read-out: Emax % MT1): 48%; pIC50 MT1 (hMT1; Table 4, agonist): 6.8 |
| CC(C)c1ccc(CNc2cccc(-c3ncn[nH]3)c2)cc1 [ZINC157673384] | 7.68±0.09 | 563.8 ng·h/mL | 58.48 mL/min/kg | 1299.6 ng/mL | 1.38 L/kg | 1.43 (30′) | 19.2 min | approximately 1 hour | advanced the onset of running wheel activity with an amplitude equivalent to, or even larger than that of melatonin | 30 µg/kg | 0.80±0.04 | 47% | 30 fold | 21 nM | hMT1 Emax (hMT1; FIG. 3D-3E, normalized to isoproterenol-stimulated basal activity): −47±12%; hMT1 pA2 (hMT1; [2]): 7.9±0.1; MT1 % Emax (hMT1; Table 2, cell marked Inverse (inverse agonist)): 47 ± 12%; pEC50 MT1 (IA) (hMT1; Table 4, IA (inverse agonist)): 7.7 |
| Clc1ccc(CNc2cccc(-c3nnc[nH]3)c2)c(Br)c1 [ZINC555417447] | 7.39±0.10 | 494.5 ng·h/mL | 67.11 mL/min/kg | 1948.6 ng/mL | 1.11 L/kg | 3.03 (30′) | 16.2 min | approximately 1 hour | advanced the onset of running wheel activity with an amplitude equivalent to, or even larger than that of melatonin | 30 µg/kg | 0.98±0.03 | 62% | 50 fold | 41 nM | phase shift of RW activity onset at CT2 (C3H/HeN mice; 30 μg/mouse s.c., CT2 (dawn), WT, MT1KO, MT2KO, in words): did not phase shift RW activity onset; phase advance activity in MT1KO mice (C3H/HeN mice; 30 μg/mouse s.c., CT10, MT1KO, in words): ablation of the activity; phase advance activity in MT2KO mice (C3H/HeN mice; 30 μg/mouse s.c., CT10, MT2KO, in words): maintenance of its activity; Emax (hMT1; HEK293, FIG. 3D-3E, normalized to isoproterenol-stimulated basal activity, read-out: hMT1 Emax): -62 ± 13%; Emax (hMT1; HEK293, Table 2, cell marked Inverse (inverse agonist), read-out: MT1 % Emax (converted)): 62%; hMT1 pKB (hMT1; [2]): 7.4±0.1; EC50 (hMT1; Table 4, IA (inverse agonist), read-out: pEC50 MT1 (IA) (converted)): 50.1 nM |
